From ChEMBL document CHEMBL5465560, “Selectivity Literature for EUbOPEN Chemogenomic Library” (2024)

Assays:
[1] = biological target: Dual specificity mitogen-activated protein kinase kinase 1 (Homo sapiens, UniProt Q02750); assay: Selectivity interaction (Kinase panel (Z-LYTE Assay)) EUB0001632a MAP2K1; conditions: at 10 µM
[2] = biological target: Nucleosome-remodeling factor subunit BPTF (Homo sapiens, UniProt Q12830); assay: Selectivity interaction (Human bromodomain panel (DSF assay)) EUB0000233b BPTF
[3] = biological target: T1, Membrane-associated tyrosine- and threonine-specific cdc2-inhibitory kinase (Homo sapiens) (UniProt Q99640); assay: Selectivity interaction (KinomeScan (DiscoverX)) EUB0000666a PKMYT1; conditions: at 10 µM
T1 sequence (whole entry): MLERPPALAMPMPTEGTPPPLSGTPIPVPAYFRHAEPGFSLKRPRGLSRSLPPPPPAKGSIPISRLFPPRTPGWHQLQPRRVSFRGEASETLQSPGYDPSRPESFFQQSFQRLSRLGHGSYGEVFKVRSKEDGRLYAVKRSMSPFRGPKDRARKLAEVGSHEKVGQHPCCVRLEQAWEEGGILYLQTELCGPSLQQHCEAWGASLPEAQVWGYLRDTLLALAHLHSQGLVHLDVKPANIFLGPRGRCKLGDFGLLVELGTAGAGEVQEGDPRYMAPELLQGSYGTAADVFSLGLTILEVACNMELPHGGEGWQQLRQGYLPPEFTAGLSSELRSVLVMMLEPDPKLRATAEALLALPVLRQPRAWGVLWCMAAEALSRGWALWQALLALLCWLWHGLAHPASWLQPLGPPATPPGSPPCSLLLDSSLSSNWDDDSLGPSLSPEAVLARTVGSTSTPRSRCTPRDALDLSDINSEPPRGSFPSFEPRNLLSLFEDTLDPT

[4] = biological target: Tyrosine-protein kinase JAK1 (Homo sapiens, UniProt P23458); assay: Selectivity interaction (KinomeScan (DiscoverX)) EUB0000607a JAK1; conditions: at 10 µM
Tyrosine-protein kinase JAK1, sequence (P23458 whole entry): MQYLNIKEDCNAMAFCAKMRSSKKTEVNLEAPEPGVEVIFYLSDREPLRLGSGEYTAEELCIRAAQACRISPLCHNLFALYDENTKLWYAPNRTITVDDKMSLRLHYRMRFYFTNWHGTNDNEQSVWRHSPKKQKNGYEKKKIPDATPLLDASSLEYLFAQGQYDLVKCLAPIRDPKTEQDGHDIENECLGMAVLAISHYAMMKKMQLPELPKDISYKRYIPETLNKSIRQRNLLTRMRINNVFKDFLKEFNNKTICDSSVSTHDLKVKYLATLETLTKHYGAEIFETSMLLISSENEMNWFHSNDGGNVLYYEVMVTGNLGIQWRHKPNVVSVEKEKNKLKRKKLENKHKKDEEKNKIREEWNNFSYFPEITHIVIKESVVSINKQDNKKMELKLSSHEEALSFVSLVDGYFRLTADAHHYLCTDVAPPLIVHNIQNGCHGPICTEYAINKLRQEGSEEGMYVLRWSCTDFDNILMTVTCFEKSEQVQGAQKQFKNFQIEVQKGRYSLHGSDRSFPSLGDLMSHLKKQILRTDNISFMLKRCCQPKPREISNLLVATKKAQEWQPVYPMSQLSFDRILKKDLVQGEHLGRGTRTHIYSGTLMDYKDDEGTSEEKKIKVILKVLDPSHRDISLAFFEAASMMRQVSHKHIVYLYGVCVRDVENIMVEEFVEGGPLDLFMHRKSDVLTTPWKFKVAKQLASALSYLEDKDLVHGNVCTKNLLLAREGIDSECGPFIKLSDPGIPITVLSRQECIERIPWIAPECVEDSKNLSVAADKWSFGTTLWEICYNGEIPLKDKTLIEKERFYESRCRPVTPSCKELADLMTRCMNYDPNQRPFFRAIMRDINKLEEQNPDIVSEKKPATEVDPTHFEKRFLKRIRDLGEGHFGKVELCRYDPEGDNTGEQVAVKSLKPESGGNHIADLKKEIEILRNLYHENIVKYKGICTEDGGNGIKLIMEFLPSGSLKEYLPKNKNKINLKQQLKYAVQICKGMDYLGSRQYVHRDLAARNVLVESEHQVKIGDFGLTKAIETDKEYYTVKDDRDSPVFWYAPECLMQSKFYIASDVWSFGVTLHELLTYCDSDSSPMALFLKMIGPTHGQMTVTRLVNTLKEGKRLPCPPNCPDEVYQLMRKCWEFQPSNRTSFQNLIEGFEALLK

[5] = biological target: T2, cGMP-dependent protein kinase 2 (Homo sapiens) (UniProt Q13237); assay: Selectivity interaction (SelectScreen profiling (Invitrogen)) EUB0000607a PRKG2; conditions: at 2 µM
T2 sequence (whole entry): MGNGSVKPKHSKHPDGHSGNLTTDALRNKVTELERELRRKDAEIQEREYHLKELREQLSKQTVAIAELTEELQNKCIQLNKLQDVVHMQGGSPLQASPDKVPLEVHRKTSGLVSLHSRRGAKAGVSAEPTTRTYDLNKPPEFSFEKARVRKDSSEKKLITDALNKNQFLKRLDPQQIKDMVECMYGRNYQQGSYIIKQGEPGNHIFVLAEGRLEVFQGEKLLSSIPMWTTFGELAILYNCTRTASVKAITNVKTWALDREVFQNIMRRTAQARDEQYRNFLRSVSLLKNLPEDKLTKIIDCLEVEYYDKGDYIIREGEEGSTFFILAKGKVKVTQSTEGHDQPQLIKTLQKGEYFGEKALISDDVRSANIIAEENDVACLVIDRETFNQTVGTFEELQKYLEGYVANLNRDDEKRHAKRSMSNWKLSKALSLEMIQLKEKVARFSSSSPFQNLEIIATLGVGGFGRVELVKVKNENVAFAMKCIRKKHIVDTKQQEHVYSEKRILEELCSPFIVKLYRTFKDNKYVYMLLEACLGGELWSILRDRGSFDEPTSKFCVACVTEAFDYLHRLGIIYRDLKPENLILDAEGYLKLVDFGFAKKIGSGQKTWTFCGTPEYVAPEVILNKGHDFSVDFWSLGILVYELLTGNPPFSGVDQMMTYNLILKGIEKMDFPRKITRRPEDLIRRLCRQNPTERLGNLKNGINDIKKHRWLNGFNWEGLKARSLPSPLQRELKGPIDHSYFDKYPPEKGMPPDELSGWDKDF

[6] = biological target: MAO-B (MAOB) (Homo sapiens, UniProt P27338); assay: Selectivity interaction (Panel of kinases, GPCRs, ion channels and transporters (enzymatic assay)) EUB0000266bCl MAOB
MAO-B (MAOB), sequence (P27338 whole entry): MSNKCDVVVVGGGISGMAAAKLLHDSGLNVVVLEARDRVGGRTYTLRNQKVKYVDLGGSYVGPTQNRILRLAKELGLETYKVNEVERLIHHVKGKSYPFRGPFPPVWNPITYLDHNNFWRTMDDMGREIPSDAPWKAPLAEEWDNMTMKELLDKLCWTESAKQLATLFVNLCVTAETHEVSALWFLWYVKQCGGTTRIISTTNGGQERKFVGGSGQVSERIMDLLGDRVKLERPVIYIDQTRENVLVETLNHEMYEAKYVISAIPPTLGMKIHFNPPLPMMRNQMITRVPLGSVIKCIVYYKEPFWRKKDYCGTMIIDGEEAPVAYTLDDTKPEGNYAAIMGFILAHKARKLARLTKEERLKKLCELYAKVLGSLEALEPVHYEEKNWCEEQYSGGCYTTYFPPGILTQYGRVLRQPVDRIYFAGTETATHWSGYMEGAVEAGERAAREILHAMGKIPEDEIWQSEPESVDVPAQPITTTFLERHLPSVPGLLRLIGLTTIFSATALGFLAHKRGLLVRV

[7] = biological target: Mitogen-activated protein kinase kinase kinase kinase 4 (Homo sapiens, UniProt O95819); assay: Selectivity interaction (Upstate Kinase Profiler service (Millipore)) EUB0000056c MAP4K4; conditions: at 1 µM
Mitogen-activated protein kinase kinase kinase kinase 4, sequence (O95819 2-1239 limits assumed): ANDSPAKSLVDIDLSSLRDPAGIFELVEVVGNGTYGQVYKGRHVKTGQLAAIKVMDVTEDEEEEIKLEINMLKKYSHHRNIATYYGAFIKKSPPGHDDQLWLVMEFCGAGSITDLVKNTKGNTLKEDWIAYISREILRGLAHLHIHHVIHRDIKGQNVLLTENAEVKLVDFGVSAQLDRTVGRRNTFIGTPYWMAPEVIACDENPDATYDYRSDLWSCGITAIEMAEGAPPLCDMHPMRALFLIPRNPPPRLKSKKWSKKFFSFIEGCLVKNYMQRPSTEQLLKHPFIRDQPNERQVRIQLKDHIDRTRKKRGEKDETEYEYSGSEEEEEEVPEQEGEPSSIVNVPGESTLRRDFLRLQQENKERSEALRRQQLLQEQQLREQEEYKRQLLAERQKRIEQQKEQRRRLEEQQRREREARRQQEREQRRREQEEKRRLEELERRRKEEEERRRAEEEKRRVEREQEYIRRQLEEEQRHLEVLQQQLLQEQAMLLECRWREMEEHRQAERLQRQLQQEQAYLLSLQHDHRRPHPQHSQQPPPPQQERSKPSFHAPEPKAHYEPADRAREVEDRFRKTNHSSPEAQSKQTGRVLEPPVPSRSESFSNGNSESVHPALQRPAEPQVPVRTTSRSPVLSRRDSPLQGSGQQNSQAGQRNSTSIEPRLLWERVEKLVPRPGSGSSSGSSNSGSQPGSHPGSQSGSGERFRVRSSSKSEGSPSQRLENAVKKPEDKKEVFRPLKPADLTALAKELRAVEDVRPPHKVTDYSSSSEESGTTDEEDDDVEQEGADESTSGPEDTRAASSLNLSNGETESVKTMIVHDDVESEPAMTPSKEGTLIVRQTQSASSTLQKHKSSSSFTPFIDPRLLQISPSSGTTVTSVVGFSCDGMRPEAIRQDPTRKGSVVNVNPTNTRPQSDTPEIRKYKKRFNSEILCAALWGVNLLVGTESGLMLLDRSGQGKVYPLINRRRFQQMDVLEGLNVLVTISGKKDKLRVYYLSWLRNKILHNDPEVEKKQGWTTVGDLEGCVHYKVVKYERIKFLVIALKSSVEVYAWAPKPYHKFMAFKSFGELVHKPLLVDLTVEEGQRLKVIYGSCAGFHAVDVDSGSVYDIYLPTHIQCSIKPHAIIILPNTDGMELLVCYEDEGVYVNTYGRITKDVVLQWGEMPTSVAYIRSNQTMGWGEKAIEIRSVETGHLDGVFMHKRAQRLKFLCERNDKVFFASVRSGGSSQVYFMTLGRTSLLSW

[8] = biological target: T3, MAP/microtubule affinity-regulating kinase 4 (Homo sapiens) (UniProt Q96L34); assay: Selectivity interaction (ActivX KiNativ screen (kinase selectivity in THP-1 cell lysates)) EUB0000639a MARK4; type: subcellular; conditions: lysate
T3 sequence (whole entry): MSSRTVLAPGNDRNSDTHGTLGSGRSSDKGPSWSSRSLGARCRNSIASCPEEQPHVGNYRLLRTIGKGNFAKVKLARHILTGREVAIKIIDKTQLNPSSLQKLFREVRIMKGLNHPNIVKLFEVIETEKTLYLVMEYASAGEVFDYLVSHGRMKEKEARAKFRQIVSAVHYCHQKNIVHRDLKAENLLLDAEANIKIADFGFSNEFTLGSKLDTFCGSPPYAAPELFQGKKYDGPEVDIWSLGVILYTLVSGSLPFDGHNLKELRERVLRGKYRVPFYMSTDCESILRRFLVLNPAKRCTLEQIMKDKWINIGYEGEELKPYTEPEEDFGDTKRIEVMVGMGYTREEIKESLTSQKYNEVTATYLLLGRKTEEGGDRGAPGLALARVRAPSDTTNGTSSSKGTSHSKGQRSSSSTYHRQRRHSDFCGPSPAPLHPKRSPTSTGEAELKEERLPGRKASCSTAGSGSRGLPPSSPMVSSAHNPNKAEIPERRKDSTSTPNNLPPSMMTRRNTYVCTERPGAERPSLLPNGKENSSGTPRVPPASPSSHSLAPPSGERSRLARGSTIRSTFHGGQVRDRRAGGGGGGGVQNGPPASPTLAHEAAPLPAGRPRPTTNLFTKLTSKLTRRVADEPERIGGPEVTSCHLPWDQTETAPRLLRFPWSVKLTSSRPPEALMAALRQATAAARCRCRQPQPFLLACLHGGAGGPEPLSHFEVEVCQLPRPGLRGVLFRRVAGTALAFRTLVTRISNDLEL

[9] = biological target: Mitogen-activated protein kinase 10 (Homo sapiens, UniProt P53779); assay: Selectivity interaction (ActivX KiNativ screen (kinase selectivity in THP-1 cell lysates)) EUB0000639a MAPK10; type: subcellular; conditions: lysate
Mitogen-activated protein kinase 10, sequence (P53779 whole entry): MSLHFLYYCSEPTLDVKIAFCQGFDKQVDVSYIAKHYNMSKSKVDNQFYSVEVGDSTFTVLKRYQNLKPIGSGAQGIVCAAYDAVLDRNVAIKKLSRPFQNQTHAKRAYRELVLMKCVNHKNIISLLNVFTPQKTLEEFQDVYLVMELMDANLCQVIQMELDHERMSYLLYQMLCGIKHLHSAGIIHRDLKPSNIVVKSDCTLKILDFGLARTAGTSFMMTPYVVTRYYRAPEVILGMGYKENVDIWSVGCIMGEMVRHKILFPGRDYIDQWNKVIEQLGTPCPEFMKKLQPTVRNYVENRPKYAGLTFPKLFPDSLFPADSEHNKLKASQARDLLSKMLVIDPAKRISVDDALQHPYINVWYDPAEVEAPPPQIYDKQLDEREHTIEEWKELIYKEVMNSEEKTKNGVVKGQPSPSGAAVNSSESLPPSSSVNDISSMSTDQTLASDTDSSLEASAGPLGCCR

[10] = biological target: Tyrosine-protein kinase receptor UFO (Homo sapiens) (UniProt P30530); assay: Selectivity interaction (KinomeScan (DiscoverX)) EUB0001049a AXL; conditions: at 1 µM
[11] = biological target: Dual specificity tyrosine-phosphorylation-regulated kinase 1A (Homo sapiens, UniProt Q13627); assay: Selectivity interaction (KinomeScan (DiscoverX)) EUB0000655a DYRK1A; conditions: at 10 µM
[12] = biological target: Insulin receptor (Homo sapiens, UniProt P06213); assay: Selectivity interaction (KinomeScan (DiscoverX)) EUB0000229b INSR; conditions: at 10 µM
Insulin receptor, sequence (P06213 28-758 limits assumed): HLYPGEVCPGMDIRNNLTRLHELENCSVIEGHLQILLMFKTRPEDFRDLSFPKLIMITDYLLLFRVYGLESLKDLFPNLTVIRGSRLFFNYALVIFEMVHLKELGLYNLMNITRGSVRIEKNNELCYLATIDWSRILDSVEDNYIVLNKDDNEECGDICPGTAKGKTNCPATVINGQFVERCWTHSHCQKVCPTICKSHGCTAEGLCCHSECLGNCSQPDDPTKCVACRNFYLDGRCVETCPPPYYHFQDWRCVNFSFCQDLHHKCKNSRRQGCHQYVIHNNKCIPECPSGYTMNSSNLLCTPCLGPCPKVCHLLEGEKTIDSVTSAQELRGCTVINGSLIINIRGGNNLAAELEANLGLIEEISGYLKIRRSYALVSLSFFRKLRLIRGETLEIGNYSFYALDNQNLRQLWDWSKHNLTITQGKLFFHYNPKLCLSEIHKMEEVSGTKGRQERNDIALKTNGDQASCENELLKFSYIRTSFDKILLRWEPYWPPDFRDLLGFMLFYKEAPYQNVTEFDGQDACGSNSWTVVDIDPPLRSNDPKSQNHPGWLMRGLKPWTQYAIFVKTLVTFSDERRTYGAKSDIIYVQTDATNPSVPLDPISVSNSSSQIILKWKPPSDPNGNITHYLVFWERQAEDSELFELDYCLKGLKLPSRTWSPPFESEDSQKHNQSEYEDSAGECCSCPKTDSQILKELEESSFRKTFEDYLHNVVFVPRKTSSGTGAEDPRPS
Insulin receptor, sequence (P06213 763-1382 limits assumed): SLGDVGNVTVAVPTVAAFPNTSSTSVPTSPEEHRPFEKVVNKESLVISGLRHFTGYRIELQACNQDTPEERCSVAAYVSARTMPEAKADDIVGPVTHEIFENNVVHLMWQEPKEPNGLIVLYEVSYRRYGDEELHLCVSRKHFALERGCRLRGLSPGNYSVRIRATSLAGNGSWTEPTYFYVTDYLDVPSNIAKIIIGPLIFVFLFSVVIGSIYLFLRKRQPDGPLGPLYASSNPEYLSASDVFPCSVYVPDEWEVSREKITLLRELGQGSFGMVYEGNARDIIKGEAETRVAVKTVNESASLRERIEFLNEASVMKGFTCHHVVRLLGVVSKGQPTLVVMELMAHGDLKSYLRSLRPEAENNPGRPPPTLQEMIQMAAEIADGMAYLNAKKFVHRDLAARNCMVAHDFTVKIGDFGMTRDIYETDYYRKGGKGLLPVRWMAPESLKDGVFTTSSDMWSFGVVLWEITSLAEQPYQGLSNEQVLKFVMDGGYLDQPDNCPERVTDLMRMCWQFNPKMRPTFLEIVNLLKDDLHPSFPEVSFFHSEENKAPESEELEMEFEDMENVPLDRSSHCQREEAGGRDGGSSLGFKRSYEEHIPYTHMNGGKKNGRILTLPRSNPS

`Cn1cc(-n2cnc3c(NCc4nc5cc(Cl)c(Cl)cc5[nH]4)nc(N4CCOCC4)nc32)cn1` was tested, and the % of control [1] was -2.06%.

`CN(C)CCCOc1ccc(-c2cc(NCCCn3cccn3)nc(S(C)(=O)=O)n2)cc1` was tested, and the dTM [2] was 3.8 K.

`O=C(NOC[C@H](O)CO)c1ccc(F)c(F)c1Nc1ccc(I)cc1F` was tested, and the % of control [3] was 80%.

`CNC(=O)Nc1ccc(-c2nc(N3CC4CCC(C3)O4)c3cnn(C4CCC5(CC4)OCCO5)c3n2)cc1` gave a % of control [4] of 83% and a % of inhibition [5] of 9%.

Compound `CCn1c(-c2nc3cc(C(=O)N4CCCC(N)C4)ccc3n2C)cc2ccccc21` (stereo not given) has an XC50 [6] of 20 µM.

Work on `Cc1ccc(-c2ccc3c(ccc4sc5c(c43)NC[C@@H](C)NC5=O)n2)cn1` yielded a % of inhibition [7] of 43%.

Compound `CC[C@@H]1[C@H](F)C(=O)N[C@@H]1COc1nccc2cc(C(N)=O)c(OC)cc12` [ZIMLOVISERTIB] has a % of inhibition ([8]; at 0.01 µM) of 10.4%, a % of inhibition ([8]; at 0.04 µM) of 9.1% and a % of inhibition ([8]; at 0.2 µM) of 19.8%. The % of inhibition ([8]; at 1 µM) was 21.6%, the % of inhibition ([8]; at 5 µM) was 36.9% and the % of inhibition ([9]; at 0.01 µM) was 13.3%. It also gave a % of inhibition ([9]; at 0.04 µM) of -1.4%, a % of inhibition ([9]; at 0.2 µM) of 1.6% and a % of inhibition ([9]; at 1 µM) of 27.7%. For the same compound, the % of inhibition ([9]; at 5 µM) was 57.5%.

`COc1cc(Nc2nc(C)cc(-c3cnn4nc(OC)ccc34)n2)cc(C(F)(F)F)c1` showed a % of control [10] of 100%.

For `CN(C)CCOc1ccc(-c2nc(-c3ccncc3)c(-c3ccc4c(c3)CC/C4=N\O)[nH]2)cc1`, the % of control [11] was 94%.

`COc1cc(N(C)c2ccnc3ccc(C(F)(F)F)cc23)cc(OC)c1OC` was tested, and the % binding [12] was 100%.
